{
  "source": "patent US20110081410A1",
  "about": "“THERAPEUTIC AGENT FOR LOCAL INFLAMMATION” (ST. MARIANNA UNIVERSITY, SCHOOL OFMEDICINE, priority 2005, published 2011)",
  "test_system": "Synovial cells from OA patients",
  "settings": "retinoic acid 0.05%, 6 hours after addition, colloidal iron staining",
  "method": "Synovial cells from OA patients were cultured, and the retinoic acid nanocapsule containing calcium carbonate as an ingredient of the capsule produced in Example 1, and retinoic acid (atRA) were added thereto. Six hours after the addition, colloidal iron staining was performed to confirm the status of hyaluronic acid production. The evaluation groups were: DMSO as control, atRA, and the retinoic acid nanocapsule. The concentration of added retinoic acid was set 0.05% in both groups of atRA and retinoic acid nanocapsule.",
  "data": [
    {"smiles": "CC1=C(/C=C/C(C)=C/C=C/C(C)=C/C(=O)O)C(C)(C)CCC1", "note": "[atRA, All-trans retinoic acid]", "values": [
      {"measurement": "Hyaluronic acid production", "result": "confirmed"}
    ]}
  ]
}
